This data set relates to obese female Zucker rats. Nature of the data set: Oral daily treatment of obese female Zucker rats for 14 days (body weight, serum lipids, glucose, insulin). The data set is classed as in vivo, rat. Set-up: HDL-C / Glucose / Insulin / NEFA / BHA / TG / TC / Non HDL-C: unit not given here. The note with it: for change in vivo at 30 mg/kg/day / change in vivo at 30 mg/kg: 30 mg/kg/day; for change in vivo at 100 mg/kg/day / change in vivo at 100 mg/kg: 100 mg/kg/day. How it is done: The dosing vehicle was administered to control animals in parallel experiments.
Body weight was determined daily prior to dosing. Animals were allowed free access to rodent chow and water throughout the study. Blood glucose was determined after a 6-hour fast in the afternoon without anesthesia from a tail vein. Serum was also prepared from a blood sample subsequently obtained from the orbital venous plexus (with O2/CO2 anesthesia) prior to and after one week treatment and used lipid and insulin determinations. At two weeks, blood glucose was again determined after a 6-hour fast without anesthesia from a tail vein. Soon thereafter, animals were sacrificed by CO2 inhalation in the afternoon and cardiac blood serum was collected and assessed for various lipids and insulin.

The mark [1] stands for this setting: obese female Zucker rats, oral gavage daily 14 days, 100 mg/kg.
Where [2] appears, read: obese female Zucker rats, oral, 14 days, 5 mg/kg/day (Table 1).
The mark [3] stands for this setting: Rattus norvegicus, 336 h, obese female Zucker rats, oral daily, fourteen days, read-out: % wt. gain.
Setting [4] is: Rattus norvegicus, 336 h, obese female Zucker rats, oral daily, fourteen days, read-out: BHA, Percent Change from Pre-treatment.
Setting [5] is: Rattus norvegicus, 336 h, obese female Zucker rats, oral daily, fourteen days, read-out: Glucose, Percent Change from Pre-treatment.
[6] abbreviates: Rattus norvegicus, 336 h, obese female Zucker rats, oral daily, fourteen days, read-out: HDL-C, Percent Change from Pre-treatment.
The mark [7] stands for this setting: Rattus norvegicus, 336 h, obese female Zucker rats, oral daily, fourteen days, read-out: Insulin, Percent Change from Pre-treatment.
Setting [8] is: Rattus norvegicus, 336 h, obese female Zucker rats, oral daily, fourteen days, read-out: NEFA, Percent Change from Pre-treatment.
Where [9] appears, read: Rattus norvegicus, 336 h, obese female Zucker rats, oral daily, fourteen days, read-out: Non HDL-C, Percent Change from Pre-treatment.
Setting [10] is: Rattus norvegicus, 336 h, obese female Zucker rats, oral daily, fourteen days, read-out: TC, Percent Change from Pre-treatment.
[11] abbreviates: Rattus norvegicus, 336 h, obese female Zucker rats, oral daily, fourteen days, read-out: TG, Percent Change from Pre-treatment.

The values that follow come from patent US20030236212A1, “Functionalized long chain derivatives as acyl coenzyme-A mimics, compositions thereof, and methods of cholesterol management and related uses” (priority 2002, published 2003).

Read-outs that look alike come from different tables or passages of the source.

In the case of `CN(CCOc1ccc(CC2SC(=O)NC2=O)cc1)c1ccccn1` (centres unmarked) [Compound 2, 5-{4-[2-(Methyl-pyridin-2-yl-amino)-ethoxy]-benzyl}-thiazolidine-2,4-dione, reference compound], for the setting “fasted obese female Zucker rats, oral gavage daily 14 days, 100 mg/kg”, the blood glucose levels entry was “reduction”. Where the note is “fasted obese female Zucker rats, two weeks of treatment, 100 mg/kg”, the “serum insulin relative to pretreatment” value is “reduced”. Moreover, under setting [1], the “liver to body weight” value was “slightly reduced” and the “weight gain, percent of initial weight after two weeks” value is given as “greater than 15%”. Under setting [2], this compound registered a BHA of 15.6 ± 0.6, a Glucose of −11.1 ± 4.5, an HDL-C of −4.6 ± 8.8 and an Insulin of −53.3 ± 5.2. Moreover, under setting [2], the NEFA amounted to 0.034 ± 0.001, the “Non HDL-C” value is −54.1 ± 5.6, the TC is reported as −50.2 ± 1.8 and the TG was 53 ± 14.
In the case of `CC(C)(CCCCOCCCCC(C)(C)COP(=O)(O)O)COP(=O)(O)O.N.N.N.N` [Compound A, Phosphoric acid mono-16-(5,5-dimethyl-6-phosphonooxyhexyloxy)-2,2-dimethylhexyl] ester, tetraammonium salt], where the note is “Rattus norvegicus, 336 h, obese female Zucker rats, oral daily, fourteen days, 10 mg/kg/day, read-out: % wt. gain”, the change in vivo at 10 mg/kg/day was 9%. The change in vivo at 10 mg/kg by setting is: (Rattus norvegicus, 336 h, obese female Zucker rats, oral daily, fourteen days, 10 mg/kg/day, read-out: BHA, Percent Change from Pre-treatment) 102%; (Rattus norvegicus, 336 h, obese female Zucker rats, oral daily, fourteen days, 10 mg/kg/day, read-out: Glucose, Percent Change from Pre-treatment) -9%; (Rattus norvegicus, 336 h, obese female Zucker rats, oral daily, fourteen days, 10 mg/kg/day, read-out: HDL-C, Percent Change from Pre-treatment) 179%; (Rattus norvegicus, 336 h, obese female Zucker rats, oral daily, fourteen days, 10 mg/kg/day, read-out: Insulin, Percent Change from Pre-treatment) -7%; (Rattus norvegicus, 336 h, obese female Zucker rats, oral daily, fourteen days, 10 mg/kg/day, read-out: NEFA, Percent Change from Pre-treatment) 14%; (Rattus norvegicus, 336 h, obese female Zucker rats, oral daily, fourteen days, 10 mg/kg/day, read-out: Non HDL-C, Percent Change from Pre-treatment) 67%. For the same compound, the change in vivo at 10 mg/kg by setting is: (Rattus norvegicus, 336 h, obese female Zucker rats, oral daily, fourteen days, 10 mg/kg/day, read-out: TC, Percent Change from Pre-treatment) 115%; (Rattus norvegicus, 336 h, obese female Zucker rats, oral daily, fourteen days, 10 mg/kg/day, read-out: TG, Percent Change from Pre-treatment) 11%. The change in vivo at 30 mg/kg/day under setting [3] turned out to be 3%. For the same compound, the change in vivo at 30 mg/kg under setting [4] was found to be 141%; the change in vivo at 30 mg/kg under setting [5] worked out at 1%; the change in vivo at 30 mg/kg under setting [6] worked out at 228%; the change in vivo at 30 mg/kg under setting [7] was -16%; the change in vivo at 30 mg/kg under setting [8] was -32%; the change in vivo at 30 mg/kg under setting [9] amounted to 71%. Besides, the change in vivo at 30 mg/kg under setting [10] amounted to 164% and the change in vivo at 30 mg/kg under setting [11] is -31%. Besides, under setting [3], the change in vivo at 100 mg/kg/day is 4%. In addition, the change in vivo at 100 mg/kg by setting is: under setting [4], 257%; under setting [5], 6%; under setting [6], 559%; under setting [7], 0%; under setting [8], -53%; under setting [9], 11%. Moreover, under setting [10], the change in vivo at 100 mg/kg was 287%.
For `CC(C)(CCCCCCOCCCCCCC(C)(C)COP(=O)(O)O)COP(=O)(O)O` [Compound C], under setting [3], the change in vivo at 30 mg/kg/day stood at 13%. Moreover, the change in vivo at 30 mg/kg under setting [4] is 123%; the change in vivo at 30 mg/kg under setting [5] stood at 9%; the change in vivo at 30 mg/kg under setting [6] was -19%; the change in vivo at 30 mg/kg under setting [7] turned out to be 11%; the change in vivo at 30 mg/kg under setting [8] was -33%; the change in vivo at 30 mg/kg under setting [9] is 52%. Further, the change in vivo at 30 mg/kg turned out to be 6% under setting [10] and 22% under setting [11].
On to `CC(C)(CO)CCCCNCCCCC(C)(C)CO` [Compound H, 6-(6-Hydroxy-5,5-dimethylhexylamino)-2,2-dimethylhexan-1-ol], for which the change in vivo at 53 mg/kg/day (Rattus norvegicus, 336 h, obese female Zucker rats, oral daily, fourteen days, 53 mg/kg/day, read-out: % wt. gain) is 16%. Also, the change in vivo at 53 mg/kg is 48% (Rattus norvegicus, 336 h, obese female Zucker rats, oral daily, fourteen days, 53 mg/kg/day, read-out: BHA, Percent Change from Pre-treatment); -23% (Rattus norvegicus, 336 h, obese female Zucker rats, oral daily, fourteen days, 53 mg/kg/day, read-out: Glucose, Percent Change from Pre-treatment); 16% (Rattus norvegicus, 336 h, obese female Zucker rats, oral daily, fourteen days, 53 mg/kg/day, read-out: HDL-C, Percent Change from Pre-treatment); -49% (Rattus norvegicus, 336 h, obese female Zucker rats, oral daily, fourteen days, 53 mg/kg/day, read-out: Insulin, Percent Change from Pre-treatment); -55% (Rattus norvegicus, 336 h, obese female Zucker rats, oral daily, fourteen days, 53 mg/kg/day, read-out: NEFA, Percent Change from Pre-treatment); -10% (Rattus norvegicus, 336 h, obese female Zucker rats, oral daily, fourteen days, 53 mg/kg/day, read-out: Non HDL-C, Percent Change from Pre-treatment). Moreover, the change in vivo at 53 mg/kg runs as follows: (Rattus norvegicus, 336 h, obese female Zucker rats, oral daily, fourteen days, 53 mg/kg/day, read-out: TC, Percent Change from Pre-treatment) 5%; (Rattus norvegicus, 336 h, obese female Zucker rats, oral daily, fourteen days, 53 mg/kg/day, read-out: TG, Percent Change from Pre-treatment) -32%.
Take `CC(C)(CO)CCCCNC(=O)CCCCC(C)(C)CO` [Compound J, 7-Hydroxy-6,6-dimethylheptanoic acid (6-hydroxy-5,5-dimethylhexyl)-amide]: under setting [3], the change in vivo at 30 mg/kg/day was determined as 11%. Moreover, the change in vivo at 30 mg/kg was 21% under setting [4]; 18% under setting [5]; 20% under setting [6]; -41% under setting [7]; -38% under setting [8]; -7% under setting [9]. Besides, the change in vivo at 30 mg/kg by setting is: under setting [10], 9%; under setting [11], -10%.
Consider `CC(C)(CO)CCCCOC(=O)CCCCC(C)(C)CO` [Compound K, 7-Hydroxy-6,6-dimethylheptanoic acid 6-hydroxy-5,5-dimethylhexyl ester], for which the change in vivo at 100 mg/kg/day under setting [3] worked out at 11%. In addition, the change in vivo at 100 mg/kg reads like this: under setting [4], 103%; under setting [5], -21%; under setting [6], 23%; under setting [7], 0%; under setting [8], 43%; under setting [9], -5%. Moreover, the change in vivo at 100 mg/kg reads like this: under setting [10], 12%; under setting [11], 7%.
`CC(C)(CO)CCCCOP(=O)(O)OCCCCC(C)(C)CO` [Compound L, phosphoric acid bis(5,5-dimethyl-6-hydroxy-hexyl)ester]: the change in vivo at 80 mg/kg/day (Rattus norvegicus, 336 h, obese female Zucker rats, oral daily, fourteen days, 80 mg/kg/day, read-out: % wt. gain) was 0%. The change in vivo at 80 mg/kg was 575% (Rattus norvegicus, 336 h, obese female Zucker rats, oral daily, fourteen days, 80 mg/kg/day, read-out: BHA, Percent Change from Pre-treatment); 9% (Rattus norvegicus, 336 h, obese female Zucker rats, oral daily, fourteen days, 80 mg/kg/day, read-out: Glucose, Percent Change from Pre-treatment); 8% (Rattus norvegicus, 336 h, obese female Zucker rats, oral daily, fourteen days, 80 mg/kg/day, read-out: HDL-C, Percent Change from Pre-treatment); 21% (Rattus norvegicus, 336 h, obese female Zucker rats, oral daily, fourteen days, 80 mg/kg/day, read-out: Insulin, Percent Change from Pre-treatment); 62% (Rattus norvegicus, 336 h, obese female Zucker rats, oral daily, fourteen days, 80 mg/kg/day, read-out: NEFA, Percent Change from Pre-treatment); -17% (Rattus norvegicus, 336 h, obese female Zucker rats, oral daily, fourteen days, 80 mg/kg/day, read-out: Non HDL-C, Percent Change from Pre-treatment). The change in vivo at 80 mg/kg is -4% (Rattus norvegicus, 336 h, obese female Zucker rats, oral daily, fourteen days, 80 mg/kg/day, read-out: TC, Percent Change from Pre-treatment) and -13% (Rattus norvegicus, 336 h, obese female Zucker rats, oral daily, fourteen days, 80 mg/kg/day, read-out: TG, Percent Change from Pre-treatment).
